The procedure of data set [1]:
Toxicity Studies: 4-6 weeks old female BNX mice were treated with chemotherapeutic agents of multiple classes as monotherapy or in combination with carfilzomib. Two weeks toxicity studies were performed at doses and dose schedules as mentioned in the figure legend. Toxicity was measured as body weight loss three times a week.
The dose schedule as shown in FIG. 2A was Doxil day 1 (iv), after one hour Compound 1 day 1, 2 (iv).
The dose schedule as shown in FIG. 5A was docetaxel day 1 (iv), after one hour Compound 1 day 1, 2 (iv).

The test system of the next data set is RL human lymphoma cells. As to the kind of experiment: RL human lymphoma xenograft, Example 1 (FIG. 1). Format: in vivo, Immunocompromised mice (BNX). As to conditions: Compound 1 IV Days 1 and 2 each week + SAHA IP Days 1-5 each week; two-way ANOVA, Bonferroni. How it is done:
Immunocompromised mice (BNX, Charles River Laboratories) were challenged with subcutaneous administration of RL human lymphoma cells (1×10^7/mouse) on the right flank in a total volume of 0.1 mL phosphate buffered saline (PBS). When tumors were approximately 50 mm^3 in size (as indicated by the arrow in FIG. 1), mice were randomized to treatment groups (9 mice/group). Compound 1 was administered intravenously (IV) in a solution of 10% (w/v) sulfobutylether-betacyclodextrin in aqueous 10 mM citrate buffer pH 3.5. Administration was given on Days 1 and 2 each week. SAHA was formulated in 100% DMSO and administered intraperiotoneally (IP) on Days 1-5 each week. ***=P<0.001 (Compound 1+SAHA vs. Vehicle) by two-way ANOVA and Bonferroni post-hoc comparisons.

A further data set deals with RL tumors. Briefly: RL lymphoma xenograft, Example 2 (FIG. 9). Format: in vivo, BNX mice. As to the method: (§1) Statistical significance was achieved when p<0.05.
(§2) The effect of the combination of Compound 1 (3 mg/kg) and vorinostat (50 mg/kg) (n=8/group) on established RL tumors is shown in FIG. 9 (arrow indicates start of dosing period). The effect of the combination of Compound 1 (3 mg/kg) and vorinostat (50 mg/kg) (n=8/group) on established ES2 tumors. **, P<0.01; and ***, P<0.001 vs monotherapy and vehicle is shown in FIG. 10 (arrow indicates start of dosing period).

Data set [2] has as its system A549 non-small cell lung cancer xenograft. As to the kind of experiment: A549 non-small cell lung cancer xenograft model (FIG. 4, 6, 7). In kind it is in vivo, BNX mice.
Procedure: (§3) Xenograft studies: Tumors were established by subcutaneous (s.c.) injection of cell lines (passage number <9 and viability >95% at the time of implantation) in the right flank of BNX mice (n=8/9 per group). RL (0.1 mL) cell suspensions containing 1×10^7 cells. 5×10^6 cell suspension (0.1 mL) were injected in case of HT-29, ES2 and A549 cells. Mice were randomized into treatment groups and dosing initiated when tumors size was approximately 100 mm^3. In all treatment groups, tumors were measured three times weekly by recording the longest perpendicular diameters and tumor volumes were calculated using the equation V (mm^3)=(length×width^2)/2.
(§4) Statistical analysis: For comparisons of treatment groups, a two-way ANOVA followed by Bonferroni post hoc analysis using GraphPad Prism Software (version 4.01) was performed. Statistical significance was achieved when p<0.05.
The next data set relates to ES2 tumors. Briefly: ES2 ovarian xenograft (FIG. 10). Format: in vivo, BNX mice. The note with it: in combination with vorinostat (50 mg/kg), ovarian cancer model. How it is done: as §1, §2
The subject of data set [3] is MM1.S (multiply myeloma, dexamethasone sensitive) cells. Briefly: Cell titer glo viability, combination index with melphalan (FIG. 11). As to conditions: Compound 1 6.58 nM + melphalan 11.1, 7.4, 4.9 and 3.3 μM; melphalan pretreatment 24 hours, then Compound 1 24 hours. Format: cell-based. As to the method:
Compound 1 was tested at 6.58 nM in combination with melphalan at four different doses: 11.1, 7.4, 4.9 and 3.3 μM. MM1.S (multiply myeloma, dexamethasone sensitive) cells were plated at 200,000 cells/mL in 45 μL then pretreated with melphalan for 24 hours. Compound 1 was then added and the cells were incubated for an additional 24 hours at 6.58 nM. A 1:1 ratio of Cell titer glo solution was then added to the cell samples and read for viability. Combination index values were calculated using the Calcusyn program where values <0.9=synergy, 0.9-1.0=additive and >1.1=antagonistic.

The subject of data set [4] is relapsed multiple myeloma patients. Briefly: Phase Ib dose escalation study of carfilzomib plus lenalidomide and low-dose dexamethasone. Format: in vivo. The note with it: preliminary. The text has this:
Within the first three cohorts, seventeen patients were evaluable for response and toxicity.

Data set [5] has as its system HT29 colorectal xenograft. As to the kind of experiment: HT29 colorectal xenograft model (FIG. 3).
Procedure: as §3, §4
Where [6] appears, read: combination of Compound 1 and vorinostat.
The mark [7] stands for this setting: combination Compound 1 (5 mg/kg) + Doxil (3 mg/kg).
The mark [8] stands for this setting: combination Compound 1 at MTD (5 mg/kg) + docetaxel (5 mg/kg), FIG. 6.
[9] abbreviates: combination Compound 1 at sub-MTD (3 mg/kg) + sub-MTD docetaxel (5 mg/kg), FIG. 7.

Read-outs that look alike come from different tables or passages of the source.

On to `CC(=O)O[C@@]12CO[C@@H]1C[C@H](O)[C@@]1(C)C(=O)[C@H](O)C3=C(C)[C@@H](OC(=O)[C@H](O)[C@@H](NC(=O)OC(C)(C)C)c4ccccc4)C[C@@](O)([C@@H](OC(=O)c4ccccc4)[C@H]21)C3(C)C` [docetaxel, reference compound], for which the MTD in data set [1] (docetaxel in combination with carfilzomib, docetaxel day 1 (iv), Compound 1 day 1, 2 (iv)) stood at 10 mg/kg.

Consider `CC(C)C[C@H](NC(=O)[C@H](CCc1ccccc1)NC(=O)CN1CCOCC1)C(=O)N[C@@H](Cc1ccccc1)C(=O)N[C@@H](CC(C)C)C(=O)[C@@]1(C)CO1` [Compound 1, carfilzomib], for which the MTD in data set [1] (carfilzomib QDx2 (iv)) worked out at 5 mg/kg. In addition, in the data set with RL human lymphoma cells, the “tumor volume, P (Compound 1+SAHA vs. Vehicle)” value is reported as < 0.001. Also, in the data set with RL tumors (setting [6]), the “RL tumor growth, p vs. Compound 1 or vorinostat alone” value is < 0.01 and the “RL tumor growth, p vs. control” value was < 0.001. Besides, the “lymphoma (RL) tumor growth” value in the data set with RL tumors (combination with vorinostat, compared to vehicle controls or either single agent, Compound 1 3 mg/kg, vorinostat 50 mg/kg) is listed as “significant reduction”. The “anti-tumor effect of combination” value with RL tumors (in combination with vorinostat, lymphoma model) was “synergistic anti-tumor effect”. In data set [2] (setting [7]), the “tumor size, p vs. control or Doxil alone” value is on record as < 0.001 and the “tumor size, significance vs. carfilzomib alone” value was “No significance”. Besides, in data set [2] (setting [8]), the “tumor size, p vs. carfilzomib alone” value was < 0.05 and the “tumor size, p vs. control” value was < 0.001. In addition, in data set [2] (setting [9]), the “tumor size, p vs. carfilzomib and docetaxel” value is < 0.01; the “tumor size, p vs. control” value is < 0.001. Also, in data set [2] (combination with docetaxel, compared to vehicle controls or either single agent), the A549 tumor growth result is on record as “significant reduction”. The “anti-tumor effect of combination” value in data set [2] (in combination with docetaxel at sub-MTD doses, human lung cancer model) is reported as “synergistic anti-tumor effect”. Also, the “anti-tumor property of combination” value with ES2 tumors is on record as “effective anti-tumor property”. Further, the “combination effect (combination index, Calcusyn)” value in data set [3] was “synergistic and additive effects”. Also, the “maximum tolerated dose (MTD)” value in data set [4] (first three cohorts) was “not yet reached”. Also, the Responses entry in data set [4] is “durable”. For the same compound, the “anti-tumor effect of combination” value in data set [5] (Compound 1 and Doxil at sub-MTD doses, solid tumor model) was “synergistic anti-tumor effect”. Also, the tumor burden result in data set [5] (Compound 1 and Doxil combination, HT-29 xenograft model) is reported as “significantly reduced tumor burden”. For the same compound, in data set [5] (Compound 1 at MTD (5 mg/kg) and sub-MTD of Doxil (3 mg/kg)), the anti-tumor activity entry is given as “increased anti-tumor activity”. Besides, in data set [5] (setting [7]), the “tumor size, p vs. Doxil alone” value is on record as < 0.01 and the “tumor size, p vs. control or carfilzomib alone” value is reported as < 0.001.

These data come from USRE47954E1, “Combination therapy with peptide epoxyketones” (priority 2008, dated 2020).
